Measurements reported in ChEMBL document CHEMBL1614632, “Trend analysis of a database of intravenous pharmacokinetic parameters in humans for 670 drug compounds” (Drug Metab Dispos, 2008).

Key:
clinical [1] = conditions: human, in vivo, iv, t1/2
clinical [2] = conditions: human, in vivo, iv
clinical [3] = conditions: human, in vivo, iv, CL
clinical [4] = conditions: human, in vivo, iv, Vdss

Row | SMILES | half-life (clinical [1]) | MRT (clinical [2]) | clearance (clinical [3]) | Vd (clinical [4])
1 | CNC(=C[N+](=O)[O-])NCCSCc1csc(CN(C)C)n1 [NIZATIDINE] | 1.5 h | 1.7 h | 9.8 mL/min/kg | 1 L/kg
2 | CN[C@@H]1CCc2[nH]c3ccc(C(N)=O)cc3c2C1 [FROVATRIPTAN] | 24 h | 22 h | 2.5 mL/min/kg | 3.6 L/kg
3 | CCCNC(=O)NS(=O)(=O)c1ccc(Cl)cc1 [CHLORPROPAMIDE] | 46 h | 70 h | 0.045 mL/min/kg | 0.19 L/kg
4 | Clc1cccc(N2CCNCC2)c1 [CHLOROPHENYLPIPERAZINE] | 4.7 h | 7 h | 6.1 mL/min/kg | 2.5 L/kg
5 | CCOC(=O)[C@]1(c2ccccc2)CCC=C[C@H]1NC [NORTILIDINE] | 4.4 h | 4.2 h | 9.9 mL/min/kg | 2.5 L/kg
6 | COc1ccc([C@]2(C#N)CC[C@@H](C(=O)O)CC2)cc1OC1CCCC1 [CILOMILAST] | 7.9 h | 8.5 h | 0.5 mL/min/kg | 0.23 L/kg
7 | COc1ccc2c(c1)N(C[C@H](C)CN(C)C)c1ccccc1S2 [LEVOMEPROMAZINE] | 30 h | 21 h | 9.9 mL/min/kg | 12 L/kg
8 | O=C(NCCNCC(O)COc1ccc(O)cc1)N1CCOCC1 (stereo unspecified) [XAMOTEROL] | 7.7 h | 3.6 h | 3 mL/min/kg | 0.64 L/kg
9 | CN(CC(N)=O)C(=O)N(CCCl)N=O [SARCNU] | 1 h | 1.4 h | 9 mL/min/kg | 0.76 L/kg
10 | NC(=O)CN1CC(O)CC1=O (stereo unspecified) [OXIRACETAM] | 7.5 h | 4.9 h | 1.8 mL/min/kg | 0.55 L/kg
11 | CN1C(=O)[C@H](O)C[C@H]1c1cccnc1 | 5.9 h | 7.9 h | 1.8 mL/min/kg | 0.85 L/kg
12 | COc1ccc2c3c1O[C@H]1C[C@@H](O)C=C[C@@]31CCN(C)C2 [GALANTAMINE] | 5.3 h | 6.8 h | 5.6 mL/min/kg | 2.3 L/kg
13 | CCCC1O[C@@H]2C[C@H]3[C@@H]4CCC5=CC(=O)C=C[C@]5(C)[C@H]4[C@@H](O)C[C@]3(C)[C@]2(C(=O)CO)O1 (stereo partly specified) [BUDESONIDE] | 2.8 h | 3.2 h | 20 mL/min/kg | 3.9 L/kg
14 | CCCN(CCC)S(=O)(=O)c1ccc(C(=O)O)cc1 [PROBENECID] | 5.9 h | 8.7 h | 0.25 mL/min/kg | 0.13 L/kg
15 | COc1ccc(Cc2nccc3cc(OC)c(OC)cc23)cc1OC [PAPAVERINE] | 1.8 h | 1.4 h | 11 mL/min/kg | 0.95 L/kg
16 | CCOc1cc(CC(=O)N[C@@H](CC(C)C)c2ccccc2N2CCCCC2)ccc1C(=O)O [REPAGLINIDE] | 0.87 h | 0.75 h | 7.8 mL/min/kg | 0.35 L/kg
17 | CC[C@@]1(O)C(=O)OCc2c1cc1n(c2=O)Cc2c-1nc1cc(F)c(C)c3c1c2[C@@H](N)CC3 [EXATECAN] | 6.7 h | 7.6 h | 0.96 mL/min/kg | 0.44 L/kg
18 | NC(=O)CC[C@@H]1NC(=O)[C@H](Cc2ccccc2)NC(=O)[C@H](Cc2ccc(O)cc2)NC(=O)CCSSC[C@@H](C(=O)N2CCC[C@H]2C(=O)N[C@H](CCCN=C(N)N)C(=O)NCC(N)=O)NC(=O)[C@H](CC(N)=O)NC1=O [DESMOPRESSIN] | 3 h | 3.6 h | 1.4 mL/min/kg | 0.3 L/kg
19 | CC(C)(C)NC(=O)[C@H]1CC[C@H]2[C@@H]3CC=C4C=C(C(=O)O)CC[C@]4(C)[C@H]3CC[C@]12C [EPRISTERIDE] | 27 h | 27 h | 0.33 mL/min/kg | 0.54 L/kg
20 | C[C@H](/C=C/[C@H](C)C(C)(C)O)[C@H]1CC[C@H]2/C(=C/C=C3C[C@@H](O)C[C@H](O)C3)CCC[C@]12C [PARICALCITOL] | 5.3 h | 7.7 h | 0.89 mL/min/kg | 0.41 L/kg
21 | C=CC[C@@H]1/C=C(\C)C[C@H](C)C[C@H](OC)[C@H]2O[C@@](O)(C(=O)C(=O)N3CCCC[C@H]3C(=O)O[C@H](/C(C)=C/[C@@H]3CC[C@@H](O)[C@H](OC)C3)[C@H](C)[C@@H](O)CC1=O)[C@H](C)C[C@@H]2OC [TACROLIMUS ANHYDROUS] | 26 h | 27 h | 0.7 mL/min/kg | 1.2 L/kg
22 | Nc1ncn([C@H]2C[C@H](O)[C@@H](CO)O2)c(=O)n1 [DECITABINE] | 0.58 h | 0.59 h | 130 mL/min/kg | 4.6 L/kg
23 | c1ccc2c(c1)OCC(C1=NCCN1)O2 (stereo unspecified) [IDAZOXAN] | 4.2 h | 5.5 h | 10 mL/min/kg | 3.3 L/kg
24 | CC1(C)S[C@@H]2[C@H](NC(=O)[C@H](N)c3ccc(O)cc3)C(=O)N2[C@H]1C(=O)O [AMOXICILLIN] | 1.1 h | 1.3 h | 3.3 mL/min/kg | 0.25 L/kg
25 | CC(C)NCC(O)COc1cccc2ccccc12 (stereo unspecified) [PROPRANOLOL] | 3.4 h | 4.3 h | 12 mL/min/kg | 3.1 L/kg

Row | SMILES | half-life (clinical [1]) | MRT (clinical [2]) | clearance (clinical [3]) | Vd (clinical [4])
26 | O=P1(NCCCl)OCCCN1CCCl (stereo unspecified) [IFOSFAMIDE] | 6.6 h | 9.4 h | 1.1 mL/min/kg | 0.62 L/kg
27 | CCOc1ccccc1OCCN[C@H](C)Cc1ccc(OC)c(S(N)(=O)=O)c1 [TAMSULOSIN] | 6.8 h | 5.6 h | 0.62 mL/min/kg | 0.21 L/kg
28 | CN1C2CCCC1CC(NC(=O)c1nn(C)c3ccccc13)C2 (stereo unspecified) [GRANISETRON] | 5.2 h | 6.7 h | 9.1 mL/min/kg | 3.7 L/kg
29 | CN[C@H](CC(C)C)C(=O)N[C@H]1C(=O)N[C@@H](CC(N)=O)C(=O)N[C@H]2C(=O)N[C@H]3C(=O)N[C@H](C(=O)N[C@H](C(=O)O)c4cc(O)cc(O)c4-c4cc3ccc4O)[C@H](O)c3ccc(c(Cl)c3)Oc3cc2cc(c3O[C@@H]2O[C@H](CO)[C@@H](O)[C@H](O)[C@H]2O[C@H]2C[C@](C)(N)[C@H](O)[C@H](C)O2)Oc2ccc(cc2Cl)[C@H]1O [VANCOMYCIN] | 6.5 h | 6.9 h | 1.3 mL/min/kg | 0.54 L/kg
30 | CNC(=O)c1c(I)c(NC(C)=O)c(I)c(C(=O)O)c1I [IOTHALAMIC ACID] | 1.3 h | 1.2 h | 2.4 mL/min/kg | 0.17 L/kg
31 | c1ccc(C2(c3ccccc3)CC2C2=NCCN2)cc1 (stereo unspecified) [CIFENLINE] | 7.3 h | 7.8 h | 8.6 mL/min/kg | 4.1 L/kg
32 | Cc1ncc([N+](=O)[O-])n1CCO [METRONIDAZOLE] | 7.1 h | 7.8 h | 0.85 mL/min/kg | 0.4 L/kg
33 | CCOc1ccc(/C=C2\NCCc3cc(OCC)c(OCC)cc32)cc1OCC [DROTAVERINE] | 9.3 h | 9 h | 3.5 mL/min/kg | 1.9 L/kg
34 | O=C1CN=C(c2ccccc2Cl)c2cc([N+](=O)[O-])ccc2N1 [CLONAZEPAM] | 38 h | 55 h | 0.88 mL/min/kg | 2.9 L/kg
35 | CC(CCc1ccc2c(c1)OCO2)NCC(O)c1ccc(O)c(C(N)=O)c1 (stereo unspecified) [MEDROXALOL] | 11 h | 8.2 h | 16 mL/min/kg | 7.9 L/kg
36 | COc1ccccc1OCCNCC(O)COc1cccc2[nH]c3ccccc3c12 (stereo unspecified) [CARVEDILOL] | 2.4 h | 2.8 h | 7.8 mL/min/kg | 1.3 L/kg
37 | C[C@@H]1O[C@@H]1P(=O)(O)O [FOSFOMYCIN] | 1.9 h | 2.7 h | 2 mL/min/kg | 0.32 L/kg
38 | CCC(CC)O[C@@H]1C=C(C(=O)O)C[C@H](N)[C@H]1NC(C)=O [OSELTAMIVIR CARBOXYLATE] | 1.8 h | 1.3 h | 4.8 mL/min/kg | 0.37 L/kg
39 | NC1CCN(c2c(F)cc3c(=O)c(C(=O)O)cn(C4CC4)c3c2Cl)C1 (stereo unspecified) [CLINAFLOXACIN] | 5.4 h | 6.7 h | 4.7 mL/min/kg | 1.9 L/kg
40 | Oc1ccc2c3c1O[C@H]1[C@@H](O)CC[C@@]4(O)[C@@H](C2)N(CC2CCC2)CC[C@]314 [NALBUPHINE] | 3.7 h | 3.5 h | 22 mL/min/kg | 4.6 L/kg
41 | C[C@@H]1C(=O)O[C@H]2[C@H](O)[C@@]34[C@H]5C[C@@H](C(C)(C)C)[C@]36[C@@H](OC(=O)[C@@H]6O)O[C@@]4(C(=O)O5)[C@@]12O [GINKOLIDE B] | 5.2 h | 6.6 h | 2.3 mL/min/kg | 0.91 L/kg
42 | COCCCOc1ccnc(C[S+]([O-])c2nc3ccccc3[nH]2)c1C (stereo unspecified) [RABEPRAZOLE] | 1 h | 0.92 h | 4 mL/min/kg | 0.22 L/kg
43 | CC1=NS(=O)(=O)c2cc(Cl)ccc2N1 [DIAZOXIDE] | 48 h | 58 h | 0.06 mL/min/kg | 0.21 L/kg
44 | O=C(O)[C@@H]1C[C@@H](C2CCCCC2)CN1C(=O)CP(=O)(O)CCCCc1ccccc1 [FOSINOPRILAT] | 9.4 h | 6.8 h | 0.32 mL/min/kg | 0.13 L/kg
45 | CC(C)(O)c1ccccc1CC[C@@H](SCC1(CC(=O)O)CC1)c1cccc(/C=C/c2ccc3ccc(Cl)cc3n2)c1 [MONTELUKAST] | 5 h | 3.8 h | 0.68 mL/min/kg | 0.15 L/kg
46 | COc1cc(OC)c(C(=O)CCCN2CCCC2)c(OC)c1 [BUFLOMEDIL] | 3.3 h | 3.9 h | 5.6 mL/min/kg | 1.3 L/kg
47 | C#CCN(C)[C@H](C)Cc1ccccc1 [SELEGILINE] | 1.3 h | 1.6 h | 20 mL/min/kg | 1.9 L/kg
48 | COc1nc(C)nc(Cl)c1N=C1NCCN1 [MOXONIDINE] | 2.2 h | 2.7 h | 11 mL/min/kg | 1.8 L/kg
49 | COc1cc2c(N)nc(N3CCN(C(=O)OCC(C)(C)O)CC3)nc2c(OC)c1OC [TRIMAZOSIN] | 3.1 h | 3.1 h | 0.96 mL/min/kg | 0.18 L/kg
